The source of these data is US20150133426A1, “SUBSTITUTED PYRROLOPYRIMIDINES” (BAYER PHARMA AKTIENGESELLSCHAFT, priority 2012, published 2015).

A value given as a limit tells only on which side of the number the result lay.

For this assay, the target named is T1, human full-length MKNK1 (Homo sapiens, UniProt Q9BUB5, T385D).
T1 construct: purchased Carna Biosciences 02-145; host or cells: insect cells, baculovirus expression system
T1 sequence (Q9BUB5 1-424 isoform Q9BUB5-2 T344D): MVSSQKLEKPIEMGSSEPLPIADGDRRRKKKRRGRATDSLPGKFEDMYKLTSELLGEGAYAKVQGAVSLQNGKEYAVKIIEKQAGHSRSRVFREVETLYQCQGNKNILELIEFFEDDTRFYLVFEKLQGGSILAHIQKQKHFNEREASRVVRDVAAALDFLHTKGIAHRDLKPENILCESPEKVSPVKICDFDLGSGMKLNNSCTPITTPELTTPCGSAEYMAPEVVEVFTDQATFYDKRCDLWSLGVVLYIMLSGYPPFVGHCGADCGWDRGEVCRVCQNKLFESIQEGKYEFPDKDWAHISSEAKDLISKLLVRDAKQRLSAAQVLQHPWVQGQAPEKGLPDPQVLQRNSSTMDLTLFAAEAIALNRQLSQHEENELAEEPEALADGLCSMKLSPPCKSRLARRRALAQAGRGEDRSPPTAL
Put plainly: MKNK1 kinase high ATP assay (TR-FRET). It is filed as biochemical. The settings on record: high ATP (2 mM), 15 min preincubation with enzyme, GST-MKNK1 (T344D). The protocol:
MKNK1-inhibitory activity at high ATP of compounds of the present invention after their preincubation with MKNK1 was quantified employing the TR-FRET-based MKNK1 high ATP assay as described in the following paragraphs.
A recombinant fusion protein of Glutathione-S-Transferase (GST, N-terminally) and human full-length MKNK1 (amino acids 1-424 and T344D of accession number BAA 19885.1), expressed in insect cells using baculovirus expression system and purified via glutathione sepharose affinity chromatography, was purchased from Carna Biosciences (product no 02-145) and used as enzyme. As substrate for the kinase reaction the biotinylated peptide biotin-Ahx-IKKRKLTRRKSLKG (C-terminus in amide form) was used, which can be purchased e.g. from the company Biosyntan (Berlin-Buch, Germany).
For the assay 50 nL of a 100fold concentrated solution of the test compound in DMSO was pipetted into a black low volume 384well microtiter plate (Greiner Bio-One, Frickenhausen, Germany), 2 μL of a solution of MKNK1 in aqueous assay buffer [50 mM HEPES pH 7.5, 5 mM MgCl2, 1.0 mM dithiothreitol, 0.005% (v/v) Nonidet-P40 (Sigma)] was added and the mixture was incubated for 15 min at 22° C. to allow pre-binding of the test compounds to the enzyme before the start of the kinase reaction. Then the kinase reaction was started by the addition of 3 μL of a solution of adenosine-tri-phosphate (ATP, 3.3 mM=>final conc. in the 5 μL assay volume is 2 mM) and substrate (0.1 μM=>final conc. in the 5 μL assay volume is 0.06 μM) in assay buffer and the resulting mixture was incubated for a reaction time of 30 min at 22° C. The concentration of MKNK1 was adjusted depending of the activity of the enzyme lot and was chosen appropriate to have the assay in the linear range, typical concentrations were in the range of 0.003 μg/mL. The reaction was stopped by the addition of 5 μL of a solution of TR-FRET detection reagents (5 nM streptavidine-XL665 [Cisbio Bioassays, Codolet, France] and 1 nM anti-ribosomal protein […] (pSer236)-antibody from Invitrogen [#44921G] and 1 nM LANCE EU-W1024 labeled ProteinG [Perkin-Elmer, product no. AD0071]) in an aqueous EDTA-solution (100 mM EDTA, 0.1% (w/v) bovine serum albumin in 50 mM HEPES pH 7.5).
The resulting mixture was incubated for 1 h at 22° C. to allow the formation of complex between the phosphorylated biotinylated peptide and the detection reagents. Subsequently the amount of phosphorylated substrate was evaluated by measurement of the resonance energy transfer from the Eu-chelate to the streptavidine-XL. Therefore, the fluorescence emissions at 620 nm and 665 nm after excitation at 350 nm were measured in a TR-FRET reader, e.g. a Rubystar (BMG Labtechnologies, Offenburg, Germany) or a Viewlux (Perkin-Elmer). The ratio of the emissions at 665 nm and at […] was taken as the measure for the amount of phosphorylated substrate. The data were normalised (enzyme reaction without inhibitor=0% inhibition, all other assay components but no enzyme=100% inhibition).
A general note: Time-resolved FRET reads energy transfer from a long-lived donor to a nearby acceptor.
Turning to `O=C(NCc1ccccc1)C1CCc2[nH]c3ncnc(Nc4ccccc4N4CCOCC4)c3c2C1` (racemic) [Example 206, (RS)—N-Benzyl-4-{[2-(morpholin-4-yl)phenyl]amino}-6,7,8,9-tetrahydro-5H-pyrimido[4,5-b]indole-6-carboxamide], half-maximal inhibition (IC50) was put at 0.077 µM.

As to `COc1cc(Cl)c(Cl)cc1Nc1ncnc2[nH]c3c(c12)CC(C(=O)Nc1ccccc1)CC3` (racemic) [Example 22, (RS)-4-[(4,5-Dichloro-2-methoxyphenyl)amino]-N-phenyl-6,7,8,9-tetrahydro-5H-pyrimido[4,5-b]indole-6-carboxamide], half-maximal inhibition (IC50) was put at 0.313 µM.

Turning to `Cc1ccc(Nc2ncnc3[nH]c4c(c23)CC(C(=O)NCCCS(C)(=O)=O)CC4)cc1S(=O)(=O)O` (racemic) [Example 59, (RS)-2-Methyl-5-[(6-{[3-(methylsulfonyl)propyl]carbamoyl}-6,7,8,9-tetrahydro-5H-pyrimido[4,5-b]indol-4-yl)amino]benzenesulfonic acid], the IC50 – broadly, the midpoint of a concentration-inhibition curve – came out at 0.124 µM.

For the compound `CC(C)Oc1cc2[nH]ncc2cc1Nc1ncnc2[nH]c3c(c12)CC(F)(F)CC3` [Example 232, 6,6-Difluoro-N-[6-(propan-2-yloxy)-1H-indazol-5-yl]-6,7,8,9-tetrahydro-5H-pyrimido[4,5-b]indol-4-amine], the concentration for half-maximal inhibition (IC50) is 0.005 µM.

Turning to `CNC(=O)C1CCc2[nH]c3ncnc(Nc4ccccc4OC4CCCC4)c3c2C1` (racemic) [Example 189, (RS)-4-{[2-(Cyclopentyloxy)phenyl]amino}-N-methyl-6,7,8,9-tetrahydro-5H-pyrimido[4,5-b]indole-6-carboxamide], the IC50 is 0.084 µM.

`CC(C)NC(=O)C1CCc2[nH]c3ncnc(N4CCc5ccccc54)c3c2C1` (racemic) [Example 208, (RS)-4-(2,3-Dihydro-1H-indol-1-yl)-N-(propan-2-yl)-6,7,8,9-tetrahydro-5H-pyrimido[4,5-b]indole-6-carboxamide] registered an IC50 of 2.75 µM.

`c1ccc(OC2CCCC2)c(Nc2ncnc3[nH]c4c(c23)CCCC4)c1` [Example 116] showed a 50% inhibitory concentration (IC50) of no less than 20 µM.

The compound `COc1ccc(C(F)(F)F)cc1Nc1ncnc2[nH]c3c(c12)CC(C(=O)N1CCN(C)CC1)CC3` (racemic) [Example 215, (RS)-(4-{[2-Methoxy-5-(trifluoromethyl)phenyl]amino}-6,7,8,9-tetrahydro-5H-pyrimido[4,5-b]indol-6-yl)(4-methylpiperazin-1-yl)methanone] had a half-maximal inhibitory concentration (IC50) of 0.093 µM.

Compound `COc1cc(Cl)c(C)cc1Nc1ncnc2[nH]c3c(c12)CC(C(=O)NCCCS(C)(=O)=O)CC3` (racemic) [Example 162, (RS)-4-[(4-Chloro-2-methoxy-5-methylphenyl)amino]-N-[3-(methylsulfonyl)propyl]-6,7,8,9-tetrahydro-5H-pyrimido[4,5-b]indole-6-carboxamide] registered a concentration for half-maximal inhibition (IC50) of 0.12 µM.

Consider `CS(=O)(=O)CCCNC(=O)C1CCc2[nH]c3ncnc(Nc4ccc5ncsc5c4)c3c2C1` (racemic) [Example 49, (RS)-4-(1,3-Benzothiazol-6-ylamino)-N-[3-(methylsulfonyl)propyl]-6,7,8,9-tetrahydro-5H-pyrimido[4,5-b]indole-6-carboxamide], for which the 50% inhibitory concentration (IC50) is 0.231 µM.

`CC(C)Oc1cc2[nH]ncc2cc1Nc1ncnc2[nH]c3c(c12)CCCC3` [Example 126] registered an IC50 of 0.005 µM.

Turning to `COc1cc(F)ccc1Sc1ncnc2[nH]c3c(c12)CC(C(=O)NCCCS(C)(=O)=O)CC3` (racemic) [Example 147, (RS)-4-[(4-Fluoro-2-methoxyphenyl)sulfanyl]-N-[3-(methylsulfonyl)propyl]-6,7,8,9-tetrahydro-5H-pyrimido[4,5-b]indole-6-carboxamide], half-maximal inhibition (IC50) required 5.92 µM.

As to `COCC1(OC)CCc2[nH]c3ncnc(Nc4cc5cn[nH]c5cc4F)c3c2C1` (racemic) [Example 139], half-maximal inhibition (IC50) was put at 0.197 µM.

In the case of `CCOC(=O)C1CCc2[nH]c3ncnc(Nc4cc(F)ccc4OC)c3c2C1` (racemic) [Example 171, (RS)-Ethyl 4-[(5-fluoro-2-methoxyphenyl)amino]-6,7,8,9-tetrahydro-5H-pyrimido[4,5-b]indole-6-carboxylate], the IC50 turned out to be 6.09 µM.

Compound `COc1cc2nc(C)sc2cc1Nc1ncnc2[nH]c3c(c12)CC(C(=O)NCCCS(C)(=O)=O)CC3` (racemic) [Example 68, (RS)-4-[(5-Methoxy-2-methyl-1,3-benzothiazol-6-yl)amino]-N-[3-(methylsulfonyl)propyl]-6,7,8,9-tetrahydro-5H-pyrimido[4,5-b]indole-6-carboxamide] registered an IC50 of 6.16 µM.

With `COCC1(OC)CCc2[nH]c3ncnc(Nc4cc(Cl)c(Cl)cc4OC)c3c2C1` (racemic) [Example 140], the concentration for half-maximal inhibition (IC50) was found to be 0.339 µM.

On to `CC(C)NC(=O)C1CCc2[nH]c3ncnc(Nc4cc(Cl)ccc4OC(C)C)c3c2C1` (racemic) [Example 225, (RS)-4-{[5-Chloro-2-(propan-2-yloxy)phenyl]amino}-N-(propan-2-yl)-6,7,8,9-tetrahydro-5H-pyrimido[4,5-b]indole-6-carboxamide], for which the IC50 was found to be 1.04 µM.

`c1nc(Nc2ccc3[nH]ncc3c2)c2c3c([nH]c2n1)CCC1(C3)OCCO1` [Example 27, N-(1H-Indazol-5-yl)-5′,7′,8′,9′-tetrahydrospiro[1,3-dioxolane-2,6′-pyrimido[4,5-b]indol]-4′-amine] came in with a concentration for half-maximal inhibition (IC50) of 0.051 µM.

Regarding `COc1cc(N2CCOCC2)ccc1Nc1ncnc2[nH]c3c(c12)CC(C(=O)NCCCS(C)(=O)=O)CC3` (racemic) [Example 71, (RS)-4-{[2-Methoxy-4-(morpholin-4-yl)phenyl]amino}-N-[3-(methylsulfonyl)propyl]-6,7,8,9-tetrahydro-5H-pyrimido[4,5-b]indole-6-carboxamide], the 50% inhibitory concentration (IC50) came out at 10.8 µM.

For `COc1ccc(C(F)(F)F)cc1Nc1ncnc2[nH]c3c(c12)CC(C(=O)Nc1ccccc1)CC3` (racemic) [Example 214, (RS)-4-{[2-Methoxy-5-(trifluoromethyl)phenyl]amino}-N-phenyl-6,7,8,9-tetrahydro-5H-pyrimido[4,5-b]indole-6-carboxamide], the IC50 was found to be 3.4 µM.

Consider `O=C(Nc1ccccc1)C1CCc2[nH]c3ncnc(Nc4ccccc4OC4CCCC4)c3c2C1` (racemic) [Example 193, (RS)-4-{[2-(Cyclopentyloxy)phenyl]amino}-N-phenyl-6,7,8,9-tetrahydro-5H-pyrimido[4,5-b]indole-6-carboxamide], for which 2.89 µM corresponded to half-maximal inhibition (IC50).

Consider `CCOC(=O)C1CCc2[nH]c3ncnc(Nc4cc(Cl)ccc4OC(C)C)c3c2C1` (racemic) [Example 177, (RS)-Ethyl 4-{[5-chloro-2-(propan-2-yloxy)phenyl]amino}-6,7,8,9-tetrahydro-5H-pyrimido[4,5-b]indole-6-carboxylate], for which the IC50 was found to be 17 µM.

The compound `O=C(C1CCc2[nH]c3ncnc(Nc4ccc5[nH]ncc5c4)c3c2C1)N1CC(F)(F)C1` (racemic) [Example 17, (RS)-(3,3-Difluoroazetidin-1-yl)[4-(1H-indazol-5-ylamino)-6,7,8,9-tetrahydro-5H-pyrimido[4,5-b]indol-6-yl]methanone] showed an IC50 of 0.046 µM.

Turning to `c1ccc2c(c1)CCN2c1ncnc2[nH]c3c(c12)CCCC3` [Example 120], the IC50 turned out to be 8.35 µM.

For the compound `CS(=O)(=O)CCCNC(=O)C1CCc2[nH]c3ncnc(Nc4cccc5c4CNC5=O)c3c2C1` (racemic) [Example 81, (RS)—N-[3-(Methylsulfonyl)propyl]-4-[(1-oxo-2,3-dihydro-1H-isoindol-4-yl)amino]-6,7,8,9-tetrahydro-5H-pyrimido[4,5-b]indole-6-carboxamide], the midpoint of inhibition, the IC50, lay at 1.27 µM.

Take `CC(C)Oc1ccc(Nc2ncnc3[nH]c4c(c23)CC(C(=O)NCCCS(C)(=O)=O)CC4)cc1` (racemic) [Example 35, (RS)—N-[3-(Methylsulfonyl)propyl]-4-{[4-(propan-2-yloxy)phenyl]amino}-6,7,8,9-tetrahydro-5H-pyrimido[4,5-b]indole-6-carboxamide]: the IC50 is 9.66 µM.

`COCC1(OC)CCc2[nH]c3ncnc(Nc4ccc(F)cc4OC(C)C)c3c2C1` (racemic) [Example 137] displayed an IC50 of 0.773 µM.
